From US10894808B2, “Polypeptide ligands specific for plasma kallikrein” (BicycleRD Limited, priority 2013, dated 2021)
Where two headings read alike, the source gives them in different places. Each block holds one compound with its values, some of them ahead of it. *1 amine or outer side, *2 acyl side, *3 side chain or, on linkers, in order; H or OH if unused. Where a SMILES comes first, the peptide text is derived from it. Bridges are numbered along the chain shown (N, C = ends). [ ]: non-standard residue; d: D form. TBMB = c1c(C[*:1])cc(C[*:3])cc1C[*:2]; Sar = CNCC(=O)O

Columns and labels:
[1] = Plasma stability profiling Method #1 (35% plasma, MALDI-TOF window of detection); assay type: in vitro ADME; settings: Method #1, 35% rat or human plasma, 37° C., qualitative
Procedure: A rapid plasma stability profiling assay was developed that employed mass spectrometric detection (MALDI-TOF, Voyager DE, Applied Biosystems) of the parent mass, until the time when the parent peptide mass was no longer observable. Specifically, 200 μM of peptide was incubated in the presence of 35% rat or human plasma (Sera labs, using citrate as anticoagulant) at 37° C., which was supplemented with 1×PBS (derived from a 10×PBS Stock, Sigma). At various time points (i.e. t=0, 3, 24 hrs, henceafter daily up to 10 days), 2 μL of sample was added to 18 μL of 30 mM ammonium bicarbonate in a 1:1 mixture of acetonitrile:H2O. Samples were frozen at −80° C. until the time of analysis. For mass spectrometric analysis that determines the approximate detection window of the peptide, the acetonitrile:H2O-diluted sample of a given time point was spotted directly (0.7 μL) onto the MALDI plate. Matrix (alpha-cyanocinnamic acid, Sigma, prepared as a saturated solution in 1:1 acetonitrile:water containing 0.1% trifluoroacetic acid) was layered over the sample (1 μL). At a similar laser intensity setting on the MALDI TOF, the time could then be determined until parent peptide was no longer detectable. It should be noted that this is a qualitative assay serves to detect relative changes in plasma stability.

human plasma kallikrein = target: T1, human plasma kallikrein (Homo sapiens, UniProt P03952); test: Functional enzyme assay, inhibition of human plasma kallikrein (Z-PheArg-AMC substrate); assay type: biochemical; settings: Table 1, synthetic peptides; read-out: Human (Ki)
T1 construct: purchased Stratech, UK
T1 sequence (P03952 391-638 limits assumed): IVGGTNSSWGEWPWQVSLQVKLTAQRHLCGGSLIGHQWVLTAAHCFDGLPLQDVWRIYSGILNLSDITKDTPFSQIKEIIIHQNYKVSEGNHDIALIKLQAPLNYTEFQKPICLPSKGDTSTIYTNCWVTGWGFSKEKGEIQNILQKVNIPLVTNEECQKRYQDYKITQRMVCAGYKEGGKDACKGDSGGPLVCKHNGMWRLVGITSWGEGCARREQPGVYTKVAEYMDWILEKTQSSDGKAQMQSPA
T1 sequence (P03952 20-390 partner limits assumed): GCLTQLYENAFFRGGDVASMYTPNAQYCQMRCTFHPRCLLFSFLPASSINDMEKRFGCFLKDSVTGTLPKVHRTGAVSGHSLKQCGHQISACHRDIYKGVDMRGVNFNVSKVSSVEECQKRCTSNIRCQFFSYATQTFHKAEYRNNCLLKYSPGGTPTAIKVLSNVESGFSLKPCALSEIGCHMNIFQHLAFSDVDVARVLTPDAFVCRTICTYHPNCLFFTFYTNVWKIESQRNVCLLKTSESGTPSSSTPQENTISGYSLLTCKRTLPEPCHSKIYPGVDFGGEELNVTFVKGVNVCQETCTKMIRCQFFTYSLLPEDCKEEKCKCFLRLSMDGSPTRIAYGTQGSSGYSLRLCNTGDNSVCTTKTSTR
Procedure: (§1) Functional enzyme assays were conducted in 10 mM Tris HCl, 150 mM NaCl, 10 mM MgCl2, 1 mM CaCl2 and 1 mg/mL BSA (all Sigma UK) pH 7.4 at 25° C. in solid black 96 or 384 well plates. […] Release of AMC was measured using a Pherastar FS (BMG Labtech), excitation 360 nm, emission 460 nm. The rate of the linear phase of the reaction, typically 5 to 45 minutes, was calculated in MARS data analysis software (BMG labtech). The rate was then used to calculate the IC50 and Ki in Prism (GraphPad). A four parameter inhibition non-linear regression equation was used to calculate the IC50. […]
(§2) Peptides were dissolved as the TFA-salts in their powder form, and stock solutions were usually prepared in water. All solutions were centrifuged and filtered ([…] syringe filters) prior to absorption measurement at 280 nm. Extinction coefficients were calculated based on the Trp/Tyr content of the peptide, and that of TMB (the TMB core, when contained in a peptide, has an extinction coefficient of ˜300 M^−1 cm^−1).

rabbit kallikrein = rabbit kallikrein (Oryctolagus cuniculus, UniProt G1T127); test: Functional enzyme assay, inhibition of rabbit kallikrein; assay type: biochemical
Sequence of rabbit kallikrein (G1T127 20-629): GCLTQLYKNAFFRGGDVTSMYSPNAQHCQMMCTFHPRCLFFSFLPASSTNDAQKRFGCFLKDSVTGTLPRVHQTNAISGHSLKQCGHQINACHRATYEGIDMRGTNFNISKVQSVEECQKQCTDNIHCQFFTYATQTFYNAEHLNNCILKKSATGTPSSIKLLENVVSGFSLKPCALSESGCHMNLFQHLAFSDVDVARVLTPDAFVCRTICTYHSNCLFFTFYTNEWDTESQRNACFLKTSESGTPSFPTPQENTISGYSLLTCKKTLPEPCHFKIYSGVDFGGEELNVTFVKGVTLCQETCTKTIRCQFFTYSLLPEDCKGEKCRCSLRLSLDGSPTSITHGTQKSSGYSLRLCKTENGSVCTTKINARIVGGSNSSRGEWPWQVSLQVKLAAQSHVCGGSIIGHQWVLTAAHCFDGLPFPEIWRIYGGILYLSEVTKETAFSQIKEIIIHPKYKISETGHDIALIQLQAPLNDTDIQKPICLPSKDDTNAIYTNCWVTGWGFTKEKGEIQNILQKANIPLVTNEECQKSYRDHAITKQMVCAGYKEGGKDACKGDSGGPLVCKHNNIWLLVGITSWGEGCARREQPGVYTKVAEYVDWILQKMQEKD
Procedure: as §1, §2

rat plasma kallikrein = target: T2, rat plasma kallikrein (Rattus norvegicus, UniProt P14272); test: Functional enzyme assay, inhibition of rat plasma kallikrein (Z-PheArg-AMC substrate); assay type: biochemical; settings: Table 1, synthetic peptides; read-out: Rat (Ki)
T2 construct: polyhistidine tag followed by proTEV cleavage site (pro-peptide) (N, cleaved yes); made in house; host or cells: HEK-293 (suspension-adapted), pEXPR-IBA42 vector
T2 sequence (P14272 391-638 limits assumed): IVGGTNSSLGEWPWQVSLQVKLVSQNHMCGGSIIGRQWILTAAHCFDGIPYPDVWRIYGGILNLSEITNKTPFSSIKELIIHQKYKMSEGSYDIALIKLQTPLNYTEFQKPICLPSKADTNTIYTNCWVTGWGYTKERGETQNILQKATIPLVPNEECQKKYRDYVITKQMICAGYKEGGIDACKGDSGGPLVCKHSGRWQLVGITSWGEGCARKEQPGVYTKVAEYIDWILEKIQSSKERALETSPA
Procedure: as §1, §2

[2] = Aqueous solubility (qualitative); assay type: physicochemical; settings: in words
[3] = Intravenous pharmacokinetics in rat; assay type: in vivo
Procedure: Peptides used for the pharmacokinetic studies in Example 4 were lyophilised from 10 mM HCl in water 3 times to afford the hydrochloride salts of the compounds. Solutions were dosed by intravenous bolus at 1 mg/mL in 50 mM Hepes pH 7.0, 5% glycerol, 1.9% DMSO for two compounds (Ac-(06-550) Aze3 HArg5 Sar3-(D-Arg2)) and (06-259-02)-Sar3-(D-Arg2)) at 5 mg/kg in Spraguely Dawely rats. Serial blood samples (˜0.2 mL) were taken into EDTA tubes at the indicated time points, and plasma was separated by centrifugation, and frozen at −20 C for analysis. Employing standard bioanalytical techniques, plasma samples were then analysed and quantified for parent remaining compound using a Waters, Xevo TQS LC-MS. PK parameters were determined using the software package PK Solutions 2.0 from Summit Research Services.
Peptides Ac-(06-550)-Sar3-(D-Arg)2Aze3 HArg5 (which contains the stabilising and affinity enhancing modifications Aze3 and HArg5, and a solubilising C-terminal extension Sar3-(D-Arg)2) (SEQ ID NO: 98) and Ac-(06-259-02)-Sar3-(D-Arg)2 were selected for pharmacokinetic assessment in rat. Peptides were injected intravenously in buffered solution at 1 mg/mL at 5 mg/kg Sprague Dawley rats, and blood was sampled and analysed for peptide concentrations at a number of time points post injection.

[4] = tested on: carrageenan-induced paw oedema; test: Carrageenan-induced paw oedema in rat; assay type: in vivo; settings: peptides 15 mg/kg ip, indomethacin 5 mg/kg ip, paw volume at 1, 2, 4, 6 h, p<0.001
Procedure: In this analysis, peptide Ac-(06-259-02)-Sar3-(D-Arg)2 (referred to in this study as Bicycle 3; see Example 2 herein) was assessed comparatively against the peptide Ac-(06-34-18) Phe2 Aze3 Tyr4 HArg5 Ala(ψCH2NH)6 (referred to in this study as Bicycle 2 and which is disclosed in Table 26b and FIG. 22 of PCT/EP2014/057440). Inflammation was induced in male Sprague-Dawley rats (n=10 per group) by injection of 100 μL of 1% carrageenan solution in the subplantar region of the right hind paw. Animals received treatment with the peptides and indomethacin according to Table 10:
At 1, 2, 4 and 6 hours after carrageenan administration, paw volume was measured by water displacement method. Statistical analysis was conducted using 2-way ANOVA with repeated measures (GraphPad Prism).

[5] = Plasma stability profiling Method #2 (95% plasma, MALDI-TOF), rat plasma; assay type: in vitro ADME; settings: qualitative, sampled up to 46 hrs
Procedure: (§3) To obtain stability data more rapidly, peptides were also assessed in 95% plasma. Here, PBS was omitted, and a 1-5 mM peptide stock (in DMSO) was directly diluted into plasma (i.e. 2.5 μL stock into 47.5 μL plasma), giving a final concentration of 50 μM. 5 μL samples were taken at appropriate time points and frozen at −80° C. For analysis, the samples were defrosted, mixed with 25 μL of 3:3:1 acetonitrile:methanol:water, and centrifuged at 13 k for 5 min. 5 μL of the peptide-containing supernatant was aspirated and mixed with 30 mM ammonium bicarbonate in a 1:1 mixture of acetonitrile:H2O. 1 μL of this was then spotted on the MALDI plate and analysed as described above. As above, it should be noted that this is a qualitative assay serves to detect relative changes in plasma stability.

[6] = target: T3, biotinylated human plasma kallikrein (Homo sapiens, UniProt P03952); test: Homogeneous plate-based screening assay of TBMB-cyclised phage clones (signal:background); assay type: binding; settings: Table 4, 06-259 affinity-matured library
T3 construct: The human kallikrein is non-recombinant and therefore the heavy chain is present; purchased Innovative Research, Novi, Mich., USA IHPKA; host or cells: from human plasma
T3 sequence (P03952 391-638 limits assumed): as the sequence (P03952 391-638 limits assumed) above
T3 sequence (P03952 20-390 partner limits assumed): as the sequence (P03952 20-390 partner limits assumed) above
Procedure: Assay of binding of individual clones: Library transformant colonies were picked at random and grown as individual cultures in 2TY broth containing selective antibiotic. The picked colonies were DNA-sequenced using a QIAgen PyroMark Q96 DNA sequencer to reveal the amino-acid substitution present in each clone. Where isolated, a clone of each unique substitution was assayed for human plasma kallikrein binding as follows. The phage-containing supernatant was harvested from the culture and phage were cyclised with tris bromomethyl benzene (TBMB) based on the methods of Heinis et al (Nature Chemical Biology vol. 5 pp 502-507 (2009)). The purified phage from this process were assayed for binding to biotinylated human plasma kallikrein using a homogeneous plate-based binding assay; assay read-out measured on a BMG Labtech Pherastar FS plate reader. The quantitative binding data from triplicate assay samples was averaged (mean) and expressed as signal:background (where background was a sample assayed with no target material). The signal:background was expressed as a % of the parallel parent sample. Error bars denote standard deviation of the mean. Assays shown are representative of at least 2 independent experiments. The assay data was correlated with the peptide sequences. Substitutions marked in grey were not tested (a clone was not isolated from the random library sampling). A sample of a non-binding (arbitrary) bicycle was assayed in parallel to illustrate the assay baseline.
Assay of binding of individual clones: Library transformant colonies, or selection output colonies, were picked and grown as individual cultures in 2TY broth containing selective antibiotic. The picked colonies were DNA-sequenced using a QIAgen PyroMark Q96 DNA sequencer to reveal the amino-acid substitution present in each clone, and were assayed for human plasma kallikrein binding as follows. The phage-containing supernatant was harvested from the culture and phage were cyclised with tris-bromomethylbenzene (TBMB) based on the methods of Heinis et al (Nature Chemical Biology vol. 5 pp 502-507 (2009)). The purified phage from this process were assayed for binding to biotinylated human plasma kallikrein using a homogeneous plate-based binding assay; assay read-out measured on a BMG Labtech Pherastar FS plate reader. The quantitative binding data from duplicate assay samples was averaged (mean) and expressed as signal:background. Assay data shown is representative of at least 2 independent experiments. The assay data was correlated with the peptide sequences.

[7] = Plasma stability profiling Method #2 (95% plasma, MALDI-TOF), human plasma; assay type: in vitro ADME; settings: qualitative, sampled up to 46 hrs
Procedure: as §3

window of detection of parent peptide [1]: up to 10 days
Ki (human plasma kallikrein): 3.4 nM
Ki (rabbit kallikrein; Table 1, synthetic peptides, read-out: Rabbit (Ki)): 342 nM
Ki (rabbit kallikrein; Table 5, read-out: Rabbit (Ki)): 342 nM
Ki (rat plasma kallikrein): 18.9 nM
aqueous solubility [2]: poor solubility profile
Structure (SMILES): CC[C@H](C)[C@@H]1NC(=O)[C@H](CC(C)C)NC(=O)[C@H]([C@@H](C)O)NC(=O)[C@@H]2CSCc3cc(cc(c3)CSC[C@@H](C(=O)N[C@@H](C)C(N)=O)NC(=O)[C@H]([C@@H](C)O)NC(=O)[C@H]([C@@H](C)CC)NC(=O)[C@H](CC(N)=O)NC1=O)CSC[C@H](NC(=O)[C@H](C)N)C(=O)N[C@@H](CCCNC(=N)N)C(=O)N[C@@H](CC(N)=O)C(=O)N[C@@H](Cc1ccc(O)cc1)C(=O)N[C@@H](Cc1c[nH]c3ccccc13)C(=O)N[C@@H](CC(N)=O)C(=O)N1CCC[C@H]1C(=O)N2 [06-255] (H-ACRNYWNPCTLINITCA-NH2; linker 2-9-16 via TBMB; N-terminus and C-terminus assumed)

clearance ([3]; in vivo, text b258, rat, iv 5 mg/kg): 17 mL/min/kg
aqueous solubility [2]: significantly reduced aqueous solubility
Structure (SMILES): CC[C@H](C)[C@@H]1NC(=O)[C@H](CC(=O)O)NC(=O)[C@@H]2CCCN2C(=O)[C@H](Cc2ccc(O)cc2)NC(=O)[C@H](Cc2ccc(O)cc2)NC(=O)[C@H](C(C)C)NC(=O)[C@@H]2CSCc3cc(cc(c3)CSC[C@H](N)C(=O)N[C@@H](CO)C(=O)N[C@@H](Cc3ccccc3)C(=O)N3CCC[C@H]3C(=O)N[C@@H](Cc3ccc(O)cc3)C(=O)N[C@@H](CCCNC(=N)N)C(=O)N2)CSC[C@@H](C(N)=O)NC1=O [06-550] (H-CSFPYRCVYYPDIC-NH2; linker 1-7-14 via TBMB; N-terminus assumed)

Structure (SMILES): CC(=O)N[C@H]1CSCc2cc3cc(c2)CSC[C@H](NC(=O)[C@H](Cc2c[nH]c4ccccc24)NC(=O)[C@@H]2CCCN2C(=O)[C@H](CC(N)=O)NC(=O)[C@H](Cc2c[nH]c4ccccc24)NC(=O)[C@H]([C@@H](C)O)NC(=O)[C@H](CC(N)=O)NC1=O)C(=O)N1CCC[C@H]1C(=O)N[C@@H](Cc1c[nH]c2ccccc12)C(=O)N[C@@H](CC(=O)O)C(=O)N[C@@H](C)C(=O)N1CCC[C@H]1C(=O)N[C@@H](CC(C)C)C(=O)N[C@H](C(=O)N[C@@H](C)C(=O)N(C)CC(=O)N(C)CC(=O)N(C)CC(=O)N[C@H](CCCNC(=N)N)C(=O)N[C@H](CCCNC(=N)N)C(N)=O)CSC3 [Ac-(06-259-02)-Sar3-(DArg2)] (Ac-CNTWNPWCPWDAPLCA[Sar][Sar][Sar][dR][dR]-NH2; linker 1-8-15 via TBMB)
stability in the rat circulation ([3]; FIG. 4, rat, iv, in words): marked stability in the rat circulation
clearance ([3]; in vivo, Table 8, Sprague Dawley rat, iv 5 mg/kg): 7.2 mL/min/kg
Vd ([3]; in vivo, Table 8, Sprague Dawley rat, iv 5 mg/kg, read-out: Vss): 0.8 L/kg
half-life ([3]; in vivo, Table 8, Sprague Dawley rat, iv 5 mg/kg, read-out: t1/2 elimination): 1.3 h
Ki (rabbit kallikrein): 1450 nM
effect on paw swelling induced by carrageenan [4]: inhibited the paw swelling induced by carrageenan at all timepoints

clearance ([3]; Sprague-Dawley, plasma, text b258, rat, iv 5 mg/kg): 7 mL/min/kg
window of detection of parent peptide [1]: up to 10 days
comparative stability in rat plasma [5]: significantly more stable
Ki (rabbit kallikrein; Table 5, read-out: Rabbit (Ki)): 1450 nM
S:B (Signal:Background) [6]: 43.49
comparative stability in human plasma [7]: significantly more stable
aqueous solubility [2]: poor solubility profile
Structure (SMILES): CC(C)C[C@@H]1NC(=O)[C@@H]2CCCN2C(=O)[C@H](C)NC(=O)[C@H](CC(=O)O)NC(=O)[C@H](Cc2c[nH]c3ccccc23)NC(=O)[C@@H]2CCCN2C(=O)[C@@H]2CSCc3cc(cc(c3)CSC[C@@H](C(=O)N[C@@H](C)C(N)=O)NC1=O)CSC[C@H](NC(=O)[C@H](C)N)C(=O)N[C@@H](CC(N)=O)C(=O)N[C@@H]([C@@H](C)O)C(=O)N[C@@H](Cc1c[nH]c3ccccc13)C(=O)N[C@@H](CC(N)=O)C(=O)N1CCC[C@H]1C(=O)N[C@@H](Cc1c[nH]c3ccccc13)C(=O)N2 [06-259-02] (H-ACNTWNPWCPWDAPLCA-NH2; linker 2-9-16 via TBMB; N-terminus and C-terminus assumed)

Structure (SMILES): COc1ccc2c(c1)c(CC(=O)O)c(C)n2C(=O)c1ccc(Cl)cc1 [indomethacin, reference compound]
effect on paw swelling induced by carrageenan [4]: highly significant reduction in paw swelling
